In patent publication US11000033B2, “Ketone or oxime compound, and herbicide” (NISSAN CHEMICAL CORPORATION, priority 2014, dated 2021):

What was measured:
Format in all cases: in vivo
Monochoria vaginalis = assay: Test Example 1: herbicidal activity, application before weed generation in submerged conditions (symbol C); conditions: application herbicide amount 320 g/ha
Procedure, shortened: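 Greenhouse growth at 25–30 °C lasted 3 weeks after treatment, when each weed was graded 0–5 by herbicidal ratio. Treatment was a diluted emulsion applied to the water surface of 4 cm-submerged alluvial soil on the sowing day.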

transplanted rice plant = assay: Test Example 1: effect on crop, application before weed generation in submerged conditions (symbol a); conditions: application herbicide amount 320 g/ha
Procedure, shortened: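 Rice at 2.5 leaf stage transplanted into submerged soil (4 cm depth) sown with three weed species; herbicide applied before weed emergence.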

[1] = test system: Echinochloa oryzacola Vasing.; assay: Test Example 2: herbicidal activity, application during weed generation in submerged conditions (symbol A); conditions: Table 23; application herbicide amount 320 g/ha; grade 0-5 by criteria of Test Example 1
Procedure, shortened: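 Visual herbicidal ratings, taken three weeks after dosing, reflect post-emergence water-surface application to seedlings at one to two leaves. Conditions: co-sown weeds in alluvial soil flooded to 4 cm, greenhouse held at 25° C. to 30° C.; compound given as water-diluted emulsion at a fixed herbicide amount.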

[2] = test system: Echinochloa crus-galli var. crus-galli; assay: Test Example 3: herbicidal effect by foliage application, Wagner pot (symbol H); conditions: application herbicide amount 320 g/ha
Procedure, shortened: (§1)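 Herbicidal activity was rated three weeks after a foliar spray of diluted emulsion concentrate, applied at a predetermined dose to plants grown for 14 days from seed in waterlogged alluvial soil within a 25–30 °C greenhouse.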

Leptochloa chinensis = assay: Test Example 3: herbicidal effect by foliage application, Wagner pot (symbol D); conditions: application herbicide amount 320 g/ha
Procedure, shortened: as §1

[3] = test system: directly sowed rice plant; assay: Test Example 3: effect on crop by foliage application, Wagner pot (symbol b); conditions: application herbicide amount 320 g/ha
Procedure, shortened: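 Wagner pot (1/10000 are), alluvial soil, submerged 0.1–0.5 cm; sown E. crus-galli var. crus-galli, L. chinensis, C. difformis, rice; greenhouse 25–30 °C.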

Digitaria ciliaris = assay: Test Example 4: herbicidal effect by soil treatment (symbol F); conditions: for F: Digitaria ciliaris, herbicidal effect grade: 320 g/ha
Procedure, shortened: (§2)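 Seeds were sown in sterilized diluvial soil, covered with about 1.5 cm of soil, and the soil surface was sprayed with a water-diluted emulsion of the compound at a predetermined rate. Plants grew in a greenhouse at 25° C. to 30° C.; effects were scored visually 3 weeks after application.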

Lolium multiflorum Lam. = assay: Test Example 4: herbicidal effect by soil treatment (symbol K); conditions: for K: Lolium multiflorum Lam., herbicidal effect grade: 320 g/ha
Procedure, shortened: as §2

Chenopodium album = assay: Test Example 4: herbicidal effect by soil treatment (symbol O); conditions: for O: Chenopodium album, herbicidal effect grade: 320 g/ha
Source text: Herbicidal Effect Test by Soil Treatment
Sterilized diluvial soil was placed in a plastic box having a length of 21 cm, a width of 13 cm, and a depth of 7 cm. Each of the seeds of Digitaria ciliaris, Setaria viridis, Echinochloa crus-galli var. crus-galli, Avena fatua, Alopecurus myosuroides, Lolium multiflorum Lam., Apera spica-venti, Abutilon theophrasti, Amaranthus retroflexus, Chenopodium album, Stellaria media, Galium spurium, Veronica persica, corn, soybean, rice, wheat, beet, and rapeseed was sowed in a spot-like manner and was covered with the soil of a thickness of about 1.5 cm. Subsequently, the emulsion agent of the compound present invention prepared in accordance with Formulation Example 2 was diluted with water so as to be a predetermined herbicide amount and the diluted emulsion agent was uniformly applied to the surface of the soil with a small-size spray. The plastic box was placed in a greenhouse of 25° C. to 30° C. to grow plant. 3 weeks later from the herbicide application, the effect to each plant was investigated in accordance with the criteria of Test Example 1.

beet = assay: Test Example 4: effect on crop by soil treatment (symbol f); conditions: for f: beet, effect grade on crop: 320 g/ha
Procedure, shortened: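 Plants are raised in a greenhouse (25° C. to 30° C.) from spot-sown seed, which sits under about 1.5 cm of sterilized diluvial soil in a box shared with weed species.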

corn = assay: Test Example 5: effect on crop by foliage application, plastic box (symbol c); conditions: 320 g/ha, 3 weeks after application
Procedure, shortened: (§3)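 Soil: sterilized diluvial. Container: plastic box, 21 × 13 cm, 7 cm deep. Sowing: spot-like, ~1.5 cm cover. Growth: greenhouse, 25° C. to 30° C.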

soybean = assay: Test Example 5: effect on crop by foliage application, plastic box (symbol d); conditions: 320 g/ha, 3 weeks after application
Procedure, shortened: as §3

[4] = application herbicide amount 320 g/ha

Row | SMILES | Herbicidal effect grade, C: Monochoria vaginalis (Monochoria vaginalis) | Effect grade on crop, a: transplanted rice plant (transplanted rice plant) | Herbicidal effect grade, A: Echinochloa oryzacola Vasing. [1] | herbicidal effect on H (Echinochloa crus-galli var. crus-galli), grade 0-5 [2] | herbicidal effect on D (Leptochloa chinensis), grade 0-5 (Leptochloa chinensis) | effect on crop b (directly sowed rice plant), grade 0-5 [3] | F: Digitaria ciliaris, herbicidal effect grade (Digitaria ciliaris) | K: Lolium multiflorum Lam., herbicidal effect grade (Lolium multiflorum Lam.) | O: Chenopodium album, herbicidal effect grade (Chenopodium album) | f: beet, effect grade on crop (beet) | c: corn, effect on crop (criteria 0-5) (corn) | d: soybean, effect on crop (criteria 0-5) (soybean) | also measured
1 | CON=C(C)CC1CC(OC(=O)C#C[Si](C)(C)C)=C(c2c(C)cc(C)cc2C)C1=O (centres unmarked) [1-096] | 0 (Herbicidal ratio of 5% or lower (almost no effect)) | 5 (Herbicidal ratio of 90% or more (almost completely withered)) | 5 (Herbicidal ratio of 90% or more (almost completely withered)) | 5 (Herbicidal ratio of 90% or more (almost completely withered)) | 5 (Herbicidal ratio of 90% or more (almost completely withered)) | 5 (Herbicidal ratio of 90% or more (almost completely withered)) | 5 (Herbicidal ratio of 90% or more (almost completely withered)) | 5 (Herbicidal ratio of 90% or more (almost completely withered)) | 0 (Herbicidal ratio of 5% or lower (almost no effect)) | 0 (Herbicidal ratio of 5% or lower (almost no effect)) | 5 (Herbicidal ratio of 90% or more (almost completely withered)) | 3 (Herbicidal ratio of 40% or higher and lower than 70%) | 
2 | CC(CC1CC(O)=C(c2c(C)cc(C)cc2C)C1=O)=NOC1CCCC1 (centres unmarked) [1-106] |  | 5 (Herbicidal ratio of 90% or more (almost completely withered)) | 5 (Herbicidal ratio of 90% or more (almost completely withered)) | 5 (Herbicidal ratio of 90% or more (almost completely withered)) | 5 (Herbicidal ratio of 90% or more (almost completely withered)) | 5 (Herbicidal ratio of 90% or more (almost completely withered)) | 5 (Herbicidal ratio of 90% or more (almost completely withered)) | 5 (Herbicidal ratio of 90% or more (almost completely withered)) | 0 (Herbicidal ratio of 5% or lower (almost no effect)) | 0 (Herbicidal ratio of 5% or lower (almost no effect)) | 5 (Herbicidal ratio of 90% or more (almost completely withered)) | 0 (Herbicidal ratio of 5% or lower (almost no effect)) | 
3 | CC(CC1CC(O)=C(c2c(C)cc(C)cc2C)C1=O)=NOCc1ccccc1Cl (centres unmarked) [1-113] | 4 (Herbicidal ratio of 70% or higher and lower than 90%) | 3 (Herbicidal ratio of 40% or higher and lower than 70%) | 3 (Herbicidal ratio of 40% or higher and lower than 70%) |  |  |  | 1 (Herbicidal ratio of 5% or higher and lower than 20%) | 5 (Herbicidal ratio of 90% or more (almost completely withered)) | 0 (Herbicidal ratio of 5% or lower (almost no effect)) | 0 (Herbicidal ratio of 5% or lower (almost no effect)) | 0 (Herbicidal ratio of 5% or lower (almost no effect)) | 0 (Herbicidal ratio of 5% or lower (almost no effect)) | 
4 | CC(CC1CC(OC(=O)N2CCOCC2)=C(c2c(C)cc(-c3ccc(Cl)cc3)cc2C)C1=O)=NOCC(F)(F)F (mixture of isomers) [9-025] |  |  |  |  |  |  |  |  |  |  |  |  | C (Monochoria vaginalis) herbicidal effect grade (Monochoria vaginalis): 1 (Herbicidal ratio of 5% or higher and lower than 20%); a (transplanted rice plant) effect on crop grade (transplanted rice plant): 0 (Herbicidal ratio of 5% or lower (almost no effect)); H (Echinochloa crus-galli var. crus-galli) herbicidal effect grade ([2]; Table 24): 0 (Herbicidal ratio of 5% or lower (almost no effect)); D (Leptochloa chinensis) herbicidal effect grade (Leptochloa chinensis; Table 24): 5 (Herbicidal ratio of 90% or more (almost completely withered)); b (directly sowed rice plant) effect on crop grade ([3]; Table 24): 2 (Herbicidal ratio of 20% or higher and lower than 40%); Herbicidal effect grade, F: Digitaria ciliaris (Digitaria ciliaris; [4]): 2 (Herbicidal ratio of 20% or higher and lower than 40%); Herbicidal effect grade, K: Lolium multiflorum Lam. (Lolium multiflorum Lam.; [4]): 0 (Herbicidal ratio of 5% or lower (almost no effect)); Herbicidal effect grade, O: Chenopodium album (Chenopodium album; [4]): 0 (Herbicidal ratio of 5% or lower (almost no effect)); Effect on crop grade, f: beet (beet; [4]): 0 (Herbicidal ratio of 5% or lower (almost no effect)); c: corn, effect on crop grade (corn): 5 (Herbicidal ratio of 90% or more (almost completely withered)); d: soybean, effect on crop grade (soybean): 0 (Herbicidal ratio of 5% or lower (almost no effect))
5 | CON=C(CC1CC(O)=C(c2c(C)cc(C)cc2C)C1=O)C(F)(F)F (centres unmarked) [1-097] | 0 (Herbicidal ratio of 5% or lower (almost no effect)) | 3 (Herbicidal ratio of 40% or higher and lower than 70%) | 1 (Herbicidal ratio of 5% or higher and lower than 20%) |  |  |  | 0 (Herbicidal ratio of 5% or lower (almost no effect)) | 2 (Herbicidal ratio of 20% or higher and lower than 40%) | 3 (Herbicidal ratio of 40% or higher and lower than 70%) | 0 (Herbicidal ratio of 5% or lower (almost no effect)) | 5 (Herbicidal ratio of 90% or more (almost completely withered)) | 3 (Herbicidal ratio of 40% or higher and lower than 70%) | 
6 | CC(CC1CC(O)=C(c2c(C)cc(C)cc2C)C1=O)=NOCc1ccccc1[N+](=O)[O-] (centres unmarked) [1-119] | 0 (Herbicidal ratio of 5% or lower (almost no effect)) | 3 (Herbicidal ratio of 40% or higher and lower than 70%) |  | 5 (Herbicidal ratio of 90% or more (almost completely withered)) | 4 (Herbicidal ratio of 70% or higher and lower than 90%) | 5 (Herbicidal ratio of 90% or more (almost completely withered)) | 4 (Herbicidal ratio of 70% or higher and lower than 90%) | 5 (Herbicidal ratio of 90% or more (almost completely withered)) | 0 (Herbicidal ratio of 5% or lower (almost no effect)) | 0 (Herbicidal ratio of 5% or lower (almost no effect)) | 2 (Herbicidal ratio of 20% or higher and lower than 40%) | 0 (Herbicidal ratio of 5% or lower (almost no effect)) | 
7 | CON=C(C)CC1CC(OC(=O)N(C)CCCCCl)=C(c2c(C)cc(C)cc2C)C1=O (centres unmarked) [1-126] | 0 (Herbicidal ratio of 5% or lower (almost no effect)) | 3 (Herbicidal ratio of 40% or higher and lower than 70%) |  | 3 (Herbicidal ratio of 40% or higher and lower than 70%) | 5 (Herbicidal ratio of 90% or more (almost completely withered)) | 5 (Herbicidal ratio of 90% or more (almost completely withered)) | 0 (Herbicidal ratio of 5% or lower (almost no effect)) | 4 (Herbicidal ratio of 70% or higher and lower than 90%) | 0 (Herbicidal ratio of 5% or lower (almost no effect)) | 0 (Herbicidal ratio of 5% or lower (almost no effect)) | 0 (Herbicidal ratio of 5% or lower (almost no effect)) | 0 (Herbicidal ratio of 5% or lower (almost no effect)) | 
